{
  "source": "patent US20120108429A1",
  "about": "“SAFENED AND EFFICACIOUS WEED CONTROL PARTICLE” (The Andersons, Inc., priority 2010, published 2012)",
  "origin": "cited, not measured here",
  "system": "pentas and hemerocallis",
  "conditions": "application of the herbicide",
  "data": [
    {"compound": "C#CCN1C(=O)COc2cc(F)c(N3C(=O)C4=C(CCCC4)C3=O)cc21", "note": "[flumioxazin]", "values": [
      {"measurement": "effect on growth of ornamental plants", "result": "inhibited from properly growing"}
    ]}
  ]
}
